Legend:
mouse myoblasts = assay: In vitro mouse myoblast migration assay (gelatin-coated membrane); format: cell-based; details: 12 hours; for effect on bFGF-stimulated mouse myoblast migration: 0.05 units/ml plasmin or 50 mM NAC in top chamber; for effect on migration stimulated by bFGF and fibronectin in combination: 0.05 units/ml plasmin or 50 mM NAC; for stimulation of mouse myoblast migration over the DMEM control: 25 ng/ml bFGF, 50 μg/ml fibronectin, 10 ng/ml HGF, 2 ng/ml TGF-β1; for effect on mouse myoblast migration: stimulant in bottom chamber
Experimental: Mouse myoblasts were previously isolated from hind limb muscles of 4-6 week old severe combined immunodeficient (SCID) mice and clonally purified from contaminating fibroblasts (Yao et al. “Primary myoblast-mediated gene: transfer: persistent expression of human factor IX in mice” Gene Therapy 1:99-107, 1994). Myoblasts (approximately 1×10^6 cells) were plated on 6 cm tissue culture plates coated with 0.5% gelatin (Sigma, St. Louis, Mo.) and grown in growth medium consisting of Dulbecco's Modified Eagle Medium (DMEM) (Gibco BRL, Gaithersburg Md.) supplemented with 20% fetal bovine serum (FBS; Gibco) and 0.5% chick embryo extract (CEE; Gibco). All animal studies were carried out following the institutional guidelines for ethical animal use. Human myoblasts were isolated using trypsin digestion from abdominal wall or chest wall muscle biopsies, and surgery. Written consent was obtained from all patients prior to biopsy isolation as approved by the University Hospital's Institutional Regulation Board on the use of human subjects. Cells were preplated on uncoated plates for 1 hour to separate muscle fibroblasts. […] All experiments were done with myoblasts of passage 7 or lower. Myoblast migration and invasion were examined using a commercially available in vitro cell migration and invasion assay kit (Biocoat, Becton Dickinson, Franklin Lakes, N.J.) as described by Albini et al. (A rapid in vitro assay for quantitating the invasive potential of tumor cells Cancer Res 47:3239-3245, 1987). Myoblasts were grown to approximately 70% confluence, rinsed three times in serum-free DMEM, followed by incubation for 3 hours in 0.2% bovine serum albumin (BSA) in DMEM to eliminate the effects of serum. Cells were then trypsinized and collected by centrifugation. Cells were resuspended in serum-free DMEM at a density of 1×10^5 cells/ml, and 0.5 ml aliquots of cell suspension were added to the top chamber. […] Fibronectin subfragments of 45 KDa (Sigma), 120 kDa (Gibco), 63 kDa (Retronectin, Takara) and 70 KDa (Sigma) were used alone or in combination. […] For migration studies, the upper chamber membrane was coated with 0.1% gelatin and cells were allowed to migrate for 8-12 hours, while for invasion studies, the upper membrane was coated with 5 μl of Matrigel® diluted to 5 mg/ml in sterile phosphate buffered saline (PBS) and cells were allowed to invade for 24 hours. The top side of the insert membrane was scrubbed free of cells using a cotton swab and the bottom side was stained using the Leukostat-I system (Fisher Diagnostics, Pittsburgh, Pa.). The number of cells per field was counted in 10 randomly selected fields and averaged for each condition. To evaluate the effects of inactivation or activation of MMPs, aliquots (0.05 units in 50 μl PBS) of purified human plasmin (Sigma) or 50 mM N-acetyl cysteine (NAC; Sigma) were added with the cells to the top chamber of the migration assay and growth factor was added to the bottom. […] Myoblasts (5×10^4 cells/well) were stimulated with various growth factors and fibronectin, and their ability to migrate or invade through a Matrigel® barrier (panel a, mouse myoblast migration at 12 hours; panel b, mouse myoblast invasion at 24 hours). […] Bars represent mean ±SEM from a minimum of 3 separate experiments. […] Further studies were done to elucidate the role of MMPs in cytokine-mediated mouse myoblast migration.

[1] = test system: SCID mouse vastus musculature; assay: Myoblast implantation in vivo: incorporation of β-GAL-marked myoblasts into host myofibers; details: myoblasts stimulated before implantation with 1 μg/ml bFGF, 50 μg/ml fibronectin or both; SCID mice, 3 weeks; 4 animals
Experimental: All animal studies were carried out following the institutional guideline for animal use. For in vivo studies, SCID mouse myoblasts transduced with a BAG retrovirus containing the beta-galactosidase (β-GAL) reporter gene and selected as previously described (Yao and Kurachi “Implanted myoblasts not only fuse with myofibers but also survive as muscle precursor cells” J. Cell Sci 105:957-963, 1993), were grown in growth medium on 15 cm plates. When cells reached 70% confluence they were harvested by trypsinization using standard methods, rinsed twice in phosphate buffered saline (PBS), and resuspended in DMEM containing either bFGF (1 μg/ml), fibronectin (50 μg/ml) or both, at a concentration of 2×10^7 cells/ml. […]
Muscle sections were stained for β-GAL activity using the standard histochemical staining procedure (Rando et al. “The fate of myoblasts following transplant into mature muscle” Exper. Cell Res. 220:383-389, 1995). […] The total number of β-GAL-positive fibers (stained blue) per section was counted for 5 different sections spanning the entire injection site for each animal and averaged. […]
The number of β-GAL positive myofibers were quantified after implantation of BAG-transduced SCID myoblasts treated with DMEM alone (control), 1 μg/ml bFGF, 50 μg/ml fibronectin, or 1 μg/ml bFGF+50 μg/ml fibronectin. […]

MMP-9 = assay: Gelatin zymography of mouse myoblast culture medium, MMP-9; format: cell-based
Experimental: Briefly, myoblasts were grown in 6 cm tissue culture plates to approximately 70% confluence, then rinsed three times with serumfree DMEM and incubated for 3 hours in DMEM containing 0.2% BSA to eliminate the effects of serum. Growth factors were added and cells were incubated for 24 hours. Culture medium was then collected, centrifuged to pellet detached cells, and concentrated ten-to twenty-fold using the Centricon-10 (Amicon, Beverly, Mass.) system. The protein concentration of the supernatants was determined using the Bio-Rad protein microassay system with BSA used as the standard. Samples were stored at −70° C. until use. For gelatin zymography, aliquots (10 μg as the total protein per sample) were electrophoresed at constant voltage on a 10% polyacrylamide gel containing 2 mg/ml gelatin. The gel was rinsed three times for 15 min in 2.5% Triton-X 100 to remove SDS and renature the proteins, then incubated in MMP activation buffer (0.05 M Tris-HCl, pH 7.5 with 5 mM CaCl2) for 24 hours at 37° C. with constant shaking. Gels were stained overnight in 0.5% Coomassie blue R-250, and destained for 1 hour in 40% methanol: 10% acetic acid. Proteinase activity was quantified by densitometric scanning of bands using a Bio-Rad Gel Doc 1000 video camera imaging system (Bio Rad, Hercules, Calif.). […]

MMP-2 = assay: Gelatin zymography of mouse myoblast culture medium, MMP-2; format: cell-based
Experimental: Briefly, myoblasts were grown in 6 cm tissue culture plates to approximately 70% confluence, then rinsed three times with serumfree DMEM and incubated for 3 hours in DMEM containing 0.2% BSA to eliminate the effects of serum. Growth factors were added and cells were incubated for 24 hours. Culture medium was then collected, centrifuged to pellet detached cells, and concentrated ten-to twenty-fold using the Centricon-10 (Amicon, Beverly, Mass.) system. The protein concentration of the supernatants was determined using the Bio-Rad protein microassay system with BSA used as the standard. Samples were stored at −70° C. until use. For gelatin zymography, aliquots (10 μg as the total protein per sample) were electrophoresed at constant voltage on a 10% polyacrylamide gel containing 2 mg/ml gelatin. The gel was rinsed three times for 15 min in 2.5% Triton-X 100 to remove SDS and renature the proteins, then incubated in MMP activation buffer (0.05 M Tris-HCl, pH 7.5 with 5 mM CaCl2) for 24 hours at 37° C. with constant shaking. Gels were stained overnight in 0.5% Coomassie blue R-250, and destained for 1 hour in 40% methanol: 10% acetic acid. Proteinase activity was quantified by densitometric scanning of bands using a Bio-Rad Gel Doc 1000 video camera imaging system (Bio Rad, Hercules, Calif.). […] Values are arbitrary densitometric units, which are normalized to DMEM control for each experiment and shown as values ±SEM representing a minimum of 3 experiments per condition. […] Mouse myoblasts were treated for 24 hours with either DMEM alone, fibronectin (50 μg/ml), or individual fragments (37.5 μg/ml) of 45, 120, 63 (Retronectin), 75 kDa and their combinations, 45 kDa/120 kDa and 120 kDa/63 kDa.

[2] = mouse myoblasts treated 24 hours

Row | Molecule | effect on migration stimulated by combination of bFGF and plasmin (mouse myoblasts; 50 mM NAC) | effect on bFGF-stimulated mouse myoblast migration (mouse myoblasts) | effect on migration stimulated by bFGF and fibronectin in combination (mouse myoblasts) | increase in the number of β-GAL-positive myofibers over control [1] | stimulation of mouse myoblast migration over the DMEM control (mouse myoblasts) | effect on mouse myoblast migration (mouse myoblasts) | MMP-9 expression (110 kDa band) over the DMEM control level (MMP-9; [2]) | increase of total MMP-2 expression (MMP-2; mouse myoblasts treated 24 hours, densitometry normalized to DMEM control) | effect on MMP-9 expression (MMP-9; mouse myoblasts) | MMP-2 proteolytic activation (64 and 62 kDa forms) (MMP-2; [2]) | increased MMP-2 expression (MMP-2; mouse myoblasts, soluble fibronectin 24 hours) | effect alone on mouse myoblast migration compared to the control (mouse myoblasts; 0.05 units/ml plasmin, no growth factor)
1 | CC(=O)N[C@@H](CS)C(=O)O [NAC, N-acetyl cysteine, reference compound] | dramatic reduction | efficiently reduced the effect of bFGF on mouse myoblast migration to a level similar to the BSA control | attenuated the effects |  |  |  |  |  |  |  |  | 
2 | bovine basic fibroblast growth factor [bFGF] |  |  |  | 2.3 fold | 12 fold | stimulated migration of mouse myoblasts to various degrees | ~10 fold | 49% |  |  |  | 
3 | human serum fibronectin |  |  |  | 2 fold | 14 fold | stimulated migration of mouse myoblasts to various degrees |  |  | does not significantly affect | substantial proteolytic conversion to the activated and intermediate forms | approximately 2 fold | 
4 | purified human plasmin (protein, UniProt P00747 20-580; P00747 581-810, looked up, Plasmin) Plasmin heavy chain A: EPLDDYVNTQGASLFSVTKKQLGAGSIEECAAKCEEDEEFTCRAFQYHSKEQQCVIMAENRKSSIIIRMRDVVLFEKKVYLSECKTGNGKNYRGTMSKTKNGITCQKWSSTSPHRPRFSPATHPSEGLEENYCRNPDNDPQGPWCYTTDPEKRYDYCDILECEEECMHCSGENYDGKISKTMSGLECQAWDSQSPHAHGYIPSKFPNKNLKKNYCRNPDRELRPWCFTTDPNKRWELCDIPRCTTPPPSSGPTYQCLKGTGENYRGNVAVTVSGHTCQHWSAQTPHTHNRTPENFPCKNLDENYCRNPDGKRAPWCHTTNSQVRWEYCKIPSCDSSPVSTEQLAPTAPPELTPVVQDCYHGDGQSYRGTSSTTTTGKKCQSWSSMTPHRHQKTPENYPNAGLTMNYCRNPDADKGPWCFTTDPSVRWEYCNLKKCSGTEASVVAPPPVVLLPDVETPSEEDCMFGNGKGYRGKRATTVTGTPCQDWAAQEPHRHSIFTPETNPRAGLEKNYCRNPDGDVGGPWCYTTNPRKLYDYCDVPQCAAPSFDCGKPQVEPKKCPGR Plasmin light chain B: VVGGCVAHPHSWPWQVSLRTRFGMHFCGGTLISPEWVLTAAHCLEKSPRPSSYKVILGAHQEVNLEPHVQEIEVSRLFLEPTRKDIALLKLSSPAVITDKVIPACLPSPNYVVADRTECFITGWGETQGTFGAGLLKEAQLPVIENKVCNRYEFLNGRVQSTELCAGHLAGGTDSCQGDSGGPLVCFEKDKYILQGVTSWGLGCARPNKPGVYVRVSRFVTWIEGVMRNN |  | increased the migrational response to bFGF by nearly twofold | attenuated the effect |  |  |  |  |  |  |  |  | slightly negative effect

From patent publication US20010055590A1, “Method for enhancing myoblast migration and invasion in the context of gene therapy” (priority 1999, published 2001)
